From patent US10087465B2, “Trans-acting elements for intracellular delivery of nucleic acid sequences” (The United States of America, as Represented by the …, priority 2014, dated 2018)
Entries after “also recorded” stand apart in the source; their conditions may differ. {F1} = fluorescein label

Tests used:
Format in all cases: cell-based
HeLa pLuc 705 cells [1] = experiment: Confocal microscopy analysis of dTtaPS-assisted internalization of PNA or PMO oligomers; details: dTtaPS-assisted uptake; oligomer 1.0, dTtaPS 2.0 μM; 12 h at 37° C.
Method: Confocal microscopy analysis of dTtaPS-assisted internalization of PNA or PMO oligomers in HeLa pLuc 705 cells: HeLa pLuc 705 cells (5×10^4 cells/well) were seeded in 8-well chambered slides and cultured for 24 h at 37° C. in 10% FBS-MEM (200 μl). The culture medium of each well was then replaced with 20% FBS containing fresh medium (200 μl) and the fluoresceinated PNA or PMO oligomer:dTtaPS complex that was prepared as described above to provide an oligomer and dTtaPS final concentration of […] and 2.0 μM, respectively. After a 12 h incubation at 37° C., the medium was removed and a 0.4% Trypan Blue solution (200 μl) was added to quench the fluorescence stemming from extracellular fluoresceinated oligonucleotides. After a period of 5 minutes at ambient temperature, the cells were washed twice with PBS (pH 7.4, 200 μl) followed by the addition of fresh phenol red-free DMEM (200 μl) supplemented with 10% FBS. The intracellular distribution of fluorescence was determined without fixation using a Leica SP8 confocal microscope system and analysed using the Leica LASAF software. Hoechst 33342 was used, in accordance with the manufacturer's staining protocols, for the detection of nuclei. Images were acquired at a 63× magnification.

[2] = test system: HEK 293, HeLa, HeLa pLuc705, MCF7 and SK—N—SH live cells; experiment: Flow cytometry (FACS) analysis of cellular uptake of fluorescently-labeled PNA or PMO oligomers in live cells
Method: (§1) Complex formation between PNA or PMO oligomers and dTtaPS or dAtaPS: Appropriate amounts of PNA or PMO oligomers were diluted in serum-free OptiMEM™ (20 μl). dTtaPS or dAtaPS was added to the oligomer solution to achieve a final concentration that is twice that of the oligomer. After 30 min incubation at 37° C., the PNA or PMO oligomer: dTtaPS or dAtaPS complexes were stored at 4° C. for 15 minutes or until used. Stock solutions (2×) of the complexes were made by adding OptiMEM™ to appropriate volumes.
Flow cytometry analysis of cellular uptake in live cells: The internalization of fluorescently-labeled PNA or PMO sequences (Table 1) in HEK 293, HeLa, MCF7 and SK—N—SH cells was assessed by flow cytometry. Cells were seeded in a 96-well plate (10^4 cells/well) and allowed to grow at 37° C. for 24 h in 10% FBS-MEM. The culture medium of each well was then replaced with fresh medium (100 μl) containing any of the fluorescently-labeled PNA or PMO sequences, the final concentration of which was 1 μM. After an incubation of 18 h at 37° C., the medium was removed from each well by suction and 0.25% Trypsin (50 μl) was added. Upon complete cell detachment, a solution (100 μl) of ice-cold 2% FBS in phosphate-buffered saline (PBS, pH 7.4) was added to each well. The cells were collected into tubes, to which was added 0.4% Trypan blue (50 μl) and 200 µM monensin (20 μl), and analyzed by fluorescence-activated cell sorting (FACS) using a BD FACScan™ flow cytometer. A total of 5000 events were counted and the results were reported as a percentage of the cells that have internalized the fluorescently-labeled oligomers.

HeLa pLuc 705 cells [3] = experiment: Competition assay with PS-dT8 (luciferase readout); details: PNA oligomer 10 1.0 μM, dTtaPS 1.0 μM, PS-dT8 1.0, 2.0 or 4.0 μM
Method: Competition assay: HeLa pLuc 705 cells were seeded in a 96-well plate and grown in 10% FBS-DMEM as described above. Predetermined amounts of polyA-tailed PNA oligomer 10 and octathymidilyl DNA phosphorothioate (PS-dT8) were placed in individual microfuge tubes so that the molar ratio of PNA:PS-dT8 in each tube was 1:1, 1:2 or 1:4. OptiMEM™ (20 μl) was added to each of the three tubes, which were then placed in a heating block pre-heated to 60° C. After 2 min, the tubes were removed from the heating block, allowed to cool slowly to 20° C., and then, left standing in a cold room (4° C.) for 15 min. dTtaPS was added to the mixture of oligomers of each tube to achieve a concentration that is equimolar to that of the PNA oligomer 10. After a 30 min incubation at 37° C., the PNA/PS-dT8:dTtaPS complexes were stored at 4° C. for 15 minutes or until used. […] The cells were then incubated for an additional 30 min at 37° C., whereupon luciferase activity was measured as described above in the Luciferase assay protocol. Luminescence measurements were normalized to the amounts of protein present in the test samples and reported as percent luminescence remaining relative to that of the experiment performed in the absence of PS-dT8.

HeLa pLuc705 cells [4] = experiment: Luciferase splice correction assay; details: for luciferase activity / internalization of the oligomer in the absence of PS-dT8[3+] (dTtaPS): no transfection element
Method: The efficiency of PS-dT8[3+] in the cellular uptake of polyA-tailed PNA oligomers was assessed through the luciferase splice correction assay in which the mutated intron 2 of the human β-globin gene has been inserted within the coding sequence of a luciferase reporter gene (pLuc705). The activation of a cryptic splice site in this intron leads to a defective luciferase enzyme. In the presence of a PNA oligomer complementary to the aberrant splice site, correct splicing is restored and results in an active luciferase. A concentration-dependence of splice correction activity by PS-dT8[3+]-mediated internalization of the PNA oligomer 10 in HeLa pLuc705 cells is shown in FIG. 12.
as §1
Luciferase assay protocol: HeLa pLuc 705 cells were seeded in a 96-well plate (2×10^4 cells/well) and allowed to grow at 37° C. for 18 h in 10% FBS-DMEM. The culture medium of each well was then replaced with either fresh serum-free or 20% serum-containing OptiMEM™ (50 μl) for experiments intended to be performed in serum-free or in 10% serum-containing media. A 2× solution of PNA or PMO oligomer:dTtaPS or dAtaPS complexes (50 μl) was added to the cells in order to achieve pre-determined complex concentrations, as indicated in the Figures. After a 4-hour incubation at 37° C., 20% FBS in OptiMEM™ (100 μl was added to serum-free experiments and cells were incubated for an additional 18 h at 37° C. The media was then removed by suction and the cells were mixed with a cell lysis reagent (50 μl) and agitated at ambient temperature for 10 minutes. The cell lysate (30 μl) was placed in a white 96-well plate and Bright-Glo™ reagent (20 μl) was added. Luciferase activity was measured using a microplate reader. For each well, luminescence was integrated over a period of 1 sec and recorded as relative light units (RLU). Luminescence measurements were normalized to the amount of protein present in the test sample.
Appropriate amounts of PNA/PMO oligomers were diluted in OptiMEM™ (20 μL) to achieve the concentration of 1 μM or as indicated in the Figures. PS-dT8[3+] or PS-dAs[3+] was added to the above oligomer solutions. After a 30 min incubation at 37° C., the PNA/PMO oligomer:PS-dT8[3+] or PS-dA8[3+] complexes were removed and kept at 4° C. for 15 minutes or until used. Stock solutions of the complexes were made by adding OptiMEM™ to appropriate volumes.
Luciferase Assay: Prior to performing experiments, HeLa pLuc 705 cells were seeded in a 96-well plate (2×10^4 cells/well) and allowed to grow at 37° C. for 18 h in 10% FBS DMEM. The culture medium of each well was then replaced with either fresh 50 μL serum free or 20% serum-containing OptiMEM™ for experiments intended to be performed in serum free or in 10% serum-containing media. A 2× solution of the PNA/PMO oligomer:PS-dT8[3+] or PS-dAs[3+] complexes (50 μL) was added to the cells in order to achieve a pre-determined concentration as indicated in the figures. After a 4-hour incubation at 37° C., 20% FBS in OptiMEM (100 μL) was added to serum free experiments and cells were incubated for an additional 18 h at 37° C. The media was then removed by suction and the cells were mixed with a cell lysis reagent (50 μL) and agitated at ambient temperature over a period of 10 minutes. The cell lysate (30 μL) was placed in white 96-well plate and Bright-Glow™ reagent (20 μL) was added. Luciferase activity was measured using a microplate reader. […]

HeLa pLuc705 cells [5] = experiment: Cytotoxicity study with commercial cell-counting kit (CCK-8); details: oligomer 1.0 μM, dTtaPS 2.0 μM; 18 h; compared to medium or absence of dTtaPS
Method: Flat-bottom 96-well plates were purchased from BD-Falcon. The CCK-8 Kit for cytotoxicity studies was purchased from Dojindo Molecular Technologies.
The cytotoxicity of PNA oligomer 10:dTtaPS and PMO oligomer 21:dTtaPS complexes in HeLa pLuc 705 cells was evaluated over a period of 18 h using a commercial cell-counting kit.

HeLa pLuc 705 cells [6] = experiment: Energy-dependence of the dTtaPS-assisted internalization of PNA oligomer 10; details: dTtaPS-mediated uptake; incubation of 1 h
Method: Energy-dependence of the dTtaPS-assisted internalization of PNA oligomer 10 in HeLa pLuc 705 cells: HeLa pLuc 705 cells were seeded in a 96-well plate (2×10^4 cells/well) and allowed to grow at 37° C. for 18 h in 10% FBS-DMEM. While the cell culture was maintained at 37° C. or 4° C., a 2× solution of a PNA oligomer 10:dTtaPS complex was prepared as described above. The cell culture medium was replaced with the PNA oligomer:dTtaPS complex solution to provide an oligomer and dTtaPS final concentration of […], respectively. After an incubation of 1 h at 37° C. or 4° C., the medium was removed by suction and luciferase activity was measured as described above in the Luciferase assay protocol. Luminescence measurements were normalized to the amounts of protein present in the test samples and reported as percent luminescence remaining relative to that of the experiment performed at 37° C.

Substance: PMO oligomer 18: commercial PMO, CCTCTTACCTCAGTTACA-AAAAAA-F1, SEQ ID NO. 12 (CCTCTTACCTCAGTTACAAAAAAA; all phosphorodiamidate morpholino (PMO), 3' {F1})
- intracellular distribution of fluorescence (HeLa pLuc 705 cells [1]): endosomal sequestration of 18 and modest nuclear fluorescence
- PS-dT8[3+] (dTtaPS)-mediated delivery of fluoresceinated PMO oligomers ([2]; PMO oligomer 1 μM, PS-dT8[3+] 2 μM, all cell lines, FIG. 17, listed as 18): confirmed the dTtaPS-assisted delivery

Substance: octathymidilyl DNA phosphorothioate [PS-dT8]
- decrease of luciferase activity production relative to control without PS-dT8 (HeLa pLuc 705 cells [3]): ≤ 80%

Substance: PNA oligomer 7: commercial PNA, F1-CCTCTTACCTCAGTTACA-AAAAAA-NH2, SEQ ID NO. 1 (CCTCTTACCTCAGTTACAAAAAAA; all peptide nucleic acid (PNA), 5' {F1}; PNA with C-terminal amide, further chemistry not fully specified)
- intracellular distribution of fluorescence (HeLa pLuc 705 cells [1]): endosomal sequestration of 7 is predominant
- mean fluorescence intensity (MFI) after internalization, relative to that of PMO oligomer 18 ([2]; dTtaPS-mediated uptake, FACS analysis): ~10 fold
- PS-dT8[3+] (dTtaPS)-mediated cellular internalization of fluoresceinated PNA oligomers ([2]; in the presence of PS-dT8[3+], oligomer 1 μM, all cell lines under study, FIG. 11): efficiently internalized

Substance: PMO oligomer 21: commercial PMO, CCTCTTACCTCAGTTACA-AAAAAA, SEQ ID NO. 15 (CCTCTTACCTCAGTTACAAAAAAA; all phosphorodiamidate morpholino (PMO))
- luciferase activity / internalization of the oligomer in the absence of PS-dT8[3+] (dTtaPS) (HeLa pLuc705 cells [4]; listed as 21): reduced to that of the negative control oligomer 22
- cytotoxicity of oligomer:dTtaPS complexes (HeLa pLuc705 cells [5]): did not induce significant cytotoxicity

Substance: PNA oligomer 10: commercial PNA, H-CCTCTTACCTCAGTTACA-AAAAAA-NH2, SEQ ID NO. 4 (CCTCTTACCTCAGTTACAAAAAAA; all peptide nucleic acid (PNA); PNA with C-terminal amide)
- decrease of luciferase activity production at 4° C. relative to 37° C. (HeLa pLuc 705 cells [6]): at least 50%
- luciferase activity / internalization upon PS-dA8[3+] (dAtaPS)-mediated delivery of PNA oligomers (HeLa pLuc705 cells [4]; PS-dA8[3+] 2.0 μM, compared with PS-dT8[3+]:10 complex, FIG. 16, listed as 10): No significant level of luciferase activity was detected; also recorded: Poor luciferase activity
- luciferase activity (splice correction) upon PS-dT8[3+] (dTtaPS)-assisted delivery of PNA oligomers (HeLa pLuc705 cells [4]; PS-dT8[3+] 2 μM, FIG. 12, 13, 15, listed as 10): induced splice correction of the pre-mRNA encoding luciferase, in a dose-dependent manner
- luciferase activity / internalization of the oligomer in the absence of PS-dT8[3+] (dTtaPS) (HeLa pLuc705 cells [4]): no luciferase activity was detected
- cytotoxicity of oligomer:dTtaPS complexes (HeLa pLuc705 cells [5]): did not induce significant cytotoxicity
